Earlier results in patent US5419315A, “Intrapulmonary delivery of hormones” (Aradigm Corporation, priority 1994, dated 1995).
Like-named read-outs stand apart in the source and are kept apart here.

Row | Molecule | Bioavailability (%) (in vivo) | bioavailability when administered intranasally (in vivo) | Bioavailability (%) (intranasal (nasal delivery))
1 | NC(=O)CC[C@@H]1NC(=O)[C@H](Cc2ccccc2)NC(=O)[C@H](Cc2ccc(O)cc2)NC(=O)CCSSC[C@@H](C(=O)N2CCC[C@H]2C(=O)N[C@H](CCCN=C(N)N)C(=O)NCC(N)=O)NC(=O)[C@H](CC(N)=O)NC1=O [Desmopressin] | 10 | – | –
2 | CCNC(=O)[C@@H]1CCCN1C(=O)[C@H](CCCNC(=N)N)NC(=O)[C@H](CC(C)C)NC(=O)[C@@H](CC(C)C)NC(=O)[C@H](Cc1ccc(O)cc1)NC(=O)[C@H](CO)NC(=O)[C@H](Cc1c[nH]c2ccccc12)NC(=O)[C@H](Cc1c[nH]cn1)NC(=O)[C@@H]1CCC(=O)N1 [Leuprolide] | < 10 | relatively low | –
3 | CC(C)C[C@H](NC(=O)[C@@H](Cc1ccc2ccccc2c1)NC(=O)[C@H](Cc1ccc(O)cc1)NC(=O)[C@H](CO)NC(=O)[C@H](Cc1c[nH]c2ccccc12)NC(=O)[C@H](Cc1c[nH]cn1)NC(=O)[C@@H]1CCC(=O)N1)C(=O)N[C@@H](CCCNC(=N)N)C(=O)N1CCC[C@H]1C(=O)NCC(N)=O [Nafarelin] | 2 | – | –
4 | CC[C@H](C)[C@@H]1NC(=O)[C@H](Cc2ccc(O)cc2)NC(=O)[C@@H](N)CSSC[C@@H](C(=O)N2CCC[C@H]2C(=O)N[C@@H](CC(C)C)C(=O)NCC(N)=O)NC(=O)[C@H](CC(N)=O)NC(=O)[C@H](CCC(N)=O)NC1=O [Oxytocin] | – | – | 1
5 | C[C@H](N)C(=O)NCC(=O)N[C@H]1CSSC[C@@H](C(=O)O)NC(=O)[C@H](CO)NC(=O)[C@H]([C@@H](C)O)NC(=O)[C@H](Cc2ccccc2)NC(=O)[C@H]([C@@H](C)O)NC(=O)[C@H](CCCCN)NC(=O)[C@H](Cc2c[nH]c3ccccc23)NC(=O)[C@H](Cc2ccccc2)NC(=O)[C@H](Cc2ccccc2)NC(=O)[C@H](CC(N)=O)NC(=O)[C@H](CCCCN)NC1=O [Somatostatin] | – | – | 75
6 | Calcitonin | – | – | < 1
7 | GHRH (YADAIFTNSYRKVLGQLSARKLLQDIMSRQQGESNQERGA; Somatoliberin; UniProt P01286 32-71, looked up, fragment) | – | – | < 1
8 | Glucagon | – | – | < 1
9 | Growth hormone | – | – | < 1
10 | LHRH | 1.5 | – | –
11 | Secretin | 10 | – | –
